Assay results from patent US12721853B2, “Applications of CX-5461 in treating immune rejection in renal transplantation” (Sun Yat-sen University, priority 2022, dated 2026).
pIC50: −log10 of the molar value.

Key:
Treg cells in the spleen = assay: CD4+CD25+Foxp3+ flow cytometry of spleen; type: in vivo, rat; conditions: seventh day after renal transplantation
[1] = Creatinine and urea nitrogen levels in blood after renal transplantation; type: in vivo, rat
Text: • (1) Lewis male rats and Brown Norway male rats are purchased from Beijing Vital River Laboratory Animal Technology Co., Ltd., with weight of around 200 g and age of 6-8 weeks old, and the rearing environment is of SPF level. • (2) Establishment of acute rejection model after renal transplantation in rats: the donor of Brown Norway male rats aged 6-8 weeks, about 200 g, is transplanted into Lewis male rats, and the surgical scheme is end-to-end renal vein anastomosis as reported in most literatures. The experimental groups are divided into normal group (Control) of donor rats, acute rejection (AR) group and drug group (CX5461 of 2 mg/kg) with 5 rats each. […] The collected blood is placed in a procoagulants tube at room temperature for 1 h, centrifuged at 4000 r/min in a centrifuge at 4° C. for 10 min, and the obtained serum is packaged in an EP tube and frozen at −80° C. for enzyme-linked immunosorbent assay (ELISA) detection. The removed transplanted kidney is cut in half along the longitudinal axis and soaked in 4% paraformaldehyde for pathological reaction verification. • (3) Real-time RT-PCR analysis: RNA is extracted from rat spleen by using Trizol method, and the specific operation is as follows: 1 mL of Trizol is added to the EP tube containing rat spleen and placed in the refrigerator at 4° C. for 10 min; then, porcelain beads are added into it and put into an automatic grinder, and ground at 4° C. for 5 min; 0.2 mL chloroform (i.e., ⅕ Trizol volume) is added into the EP tube, followed by shaking vigorously for about 20 times, then centrifuging at 12,500 rpm at 4° C. for 15 min; the obtained upper aqueous phase is placed in a new EP tube and carefully aspirated about 3 times with a 200 μL gun tip, and approximately an equal volume of isopropanol (i.e., 600 μL) is added, and the RNA is precipitated by centrifugation at 12,500 rpm for 15 min at 4° C., at which time a white RNA precipitate is seen. Then, 1 ml of 75% ethanol is added for washing twice, followed by centrifugation at 12500 rpm and 4° C. for 5 min. The supernatant is discarded and the precipitated RNA is allowed to dry naturally in an ultra-clean bench. RNA is obtained by dissolving the RNA precipitate with 100 μL of Rnase-free water. Subsequently, the concentration and purity of total RNA are measured using a Nanodrop. Using the RNA as a template, reverse transcription is performed by reverse transcription kit of Beijing TransGen Biotech Company to obtain a cDNA template, and quantitative PCR analysis is carried out by using this cDNA as a template and using TransGen qPCR kit according to the instructions and the detection primers shown in Table 1 below.

[2] = test system: IL-6, IL-10, IL-17A cytokines in spleen; assay: Real-time RT-PCR of cytokines in spleen after renal transplantation; type: in vivo, rat; conditions: seventh day after renal transplantation, compared with AR group, ***P<0.001
Text: (§1) • (1) Lewis male rats and Brown Norway male rats are purchased from Beijing Vital River Laboratory Animal Technology Co., Ltd., with weight of around 200 g and age of 6-8 weeks old, and the rearing environment is of SPF level. • (2) Establishment of acute rejection model after renal transplantation in rats: the donor of Brown Norway male rats aged 6-8 weeks, about 200 g, is transplanted into Lewis male rats, and the surgical scheme is end-to-end renal vein anastomosis as reported in most literatures. The experimental groups are divided into normal group (Control) of donor rats, acute rejection (AR) group and drug group (CX5461 of 2 mg/kg) with 5 rats each. After successful renal transplantation, the rats are killed at 3 days, 5 days and 7 days after operation, and blood is collected from the lower abdominal aorta by using a 5 mL sterile syringe. The collected blood is placed in a procoagulants tube at room temperature for 1 h, centrifuged at 4000 r/min in a centrifuge at 4° C. for 10 min, and the obtained serum is packaged in an EP tube and frozen at −80° C. for enzyme-linked immunosorbent assay (ELISA) detection. […] Subsequently, the concentration and purity of total RNA are measured using a Nanodrop. Using the RNA as a template, reverse transcription is performed by reverse transcription kit of Beijing TransGen Biotech Company to obtain a cDNA template, and quantitative PCR analysis is carried out by using this cDNA as a template and using TransGen qPCR kit according to the instructions and the detection primers shown in Table 1 below.

[3] = Survival of rats after renal transplantation; type: in vivo, rat; conditions: compared with acute rejection group
Text: as §1, with “syringe.” for “syringe. The collected blood is placed in a procoagulants tube at room temperature for 1 h, centrifuged at 4000 r/min in a centrifuge at 4° C. for 10 min, and the obtained serum is packaged in an EP tube and frozen at −80° C. for enzyme-linked immunosorbent assay (ELISA) detection.”

[4] = test system: IL-6, IL-10 cytokines in serum; assay: ELISA of cytokines in serum after renal transplantation; type: in vivo, rat; conditions: seventh day after renal transplantation, compared with AR group, ***P<0.001
Text: as §1, with “syringe.” for “syringe. The collected blood is placed in a procoagulants tube at room temperature for 1 h, centrifuged at 4000 r/min in a centrifuge at 4° C. for 10 min, and the obtained serum is packaged in an EP tube and frozen at −80° C. for enzyme-linked immunosorbent assay (ELISA) detection.”, “below. […]” for “below.”

Pol II = conditions: cited from earlier work
transplanted kidney = assay: H&E staining and immunohistochemical staining (anti-IL-17A) of transplanted kidney; type: in vivo, rat; conditions: seventh day after renal transplantation
[5] = test system: Pol I-driven rRNA transcription; conditions: cited from earlier work
renal implants = assay: Appearance of the kidney graft, acute rejection model after renal transplantation in rats; type: in vivo, rat; conditions: seventh day after renal transplantation, CX5461 of 2 mg/kg, compared with acute rejection group (AR)
Text: as §1, with “syringe.” for “syringe. The collected blood is placed in a procoagulants tube at room temperature for 1 h, centrifuged at 4000 r/min in a centrifuge at 4° C. for 10 min, and the obtained serum is packaged in an EP tube and frozen at −80° C. for enzyme-linked immunosorbent assay (ELISA) detection.”

[6] = third, fifth and seventh day after renal transplantation, AR group continues to increase
[7] = within 42 days after renal transplantation

## Cc1cnc(CNC(=O)c2c(=O)c3ccc(N4CCCN(C)CC4)nc3n3c2sc2ccccc23)cn1 [CX-5461]
Treg cells in the spleen
  proportion of Treg cells (CD4+CD25+Foxp3+) in the spleen: obviously increased
[1]; [6]
  creatinine level: remain at a low level
  urea nitrogen level: remain at a low level
[1]; [7]
  creatinine level: remain at a relatively low level
  urea nitrogen level: remain at a relatively low level
[2]
  IL-6 cytokine in spleen: significantly down-regulated
  IL-10 cytokine in spleen: significantly up-regulated
  IL-17A cytokine in spleen: significantly down-regulated
[3]
  survival time of rats after renal transplantation: significantly longer
[4]
  IL-6 cytokine in serum: significantly down-regulated
  IL-10 cytokine in serum: up-regulated
Pol II
  effect on Pol II: no effect
Transplanted kidney
  IL-17A cytokine in kidney transplant (immunohistochemistry): reducing the levels of IL-17A cytokine
  changes in renal tubules (H&E staining): no obvious changes in renal tubules
  glomerulus shrinkage (H&E staining): no obvious shrinkage
  infiltration of inflammatory cells (staining): no obvious infiltration of inflammatory cells
  renal fibrosis (staining): reduced renal fibrosis
[5]; HCT-116, A375, and MIA PaCa-2 cells, read-out: IC50, inhibition of Pol I-driven rRNA transcription
  pIC50: 6.85
[5]
  selectivity of rRNA transcription inhibition over DNA replication and protein translation: 250- to 300 fold
Renal implants
  inflammatory immune infiltration, appearance of the kidney graft: no obvious inflammatory immune infiltration
  renal fibrosis, appearance of the kidney graft: less renal fibrosis
